Laboratory results published in patent US10370727B2, “Point mutations in TRK inhibitor-resistant cancer and methods relating to the same” (Loxo Oncology, Inc., priority 2015, dated 2019).

Key:
Assay in all cases: Trk enzyme assay ([33P] incorporation into poly-EAY)
Format in all cases: biochemical
TrkB G623R = TrkB G623R (Homo sapiens, UniProt Q16620, G623R); details: mutant TrkB G623R enzyme; 22° C., 60 minutes
Method: (§1) The assays were conducted in 96-well polypropylene v-bottom microtitre plates (Corning, Costar® 3363) in a total volume of 50 μL. […] The radiolabeled product was then captured on glass fiber filter plates (PerkinElmer, Unifilter®-96, GF/B®) and washed with 5% phosphoric acid to remove unbound radiolabel using a Tomtec MACH III Harvester 96®. After adding 35 μL/well of Bio-Safe II™ liquid scintillation cocktail (Research Products International), the plates were counted in a TopCount NXT (PerkinElmer) using a counting time of 30 s/well. The activity at each concentration of compound was expressed as percent of control (POC) and plotted versus compound concentration.

TrkC G623R = TrkC G623R (Homo sapiens, UniProt Q16288, G623R/S70N); details: mutant TrkC G623R enzyme; 22° C., 60 minutes
TrkC G623R, sequence (Q16288 32-839 S70N/G623R): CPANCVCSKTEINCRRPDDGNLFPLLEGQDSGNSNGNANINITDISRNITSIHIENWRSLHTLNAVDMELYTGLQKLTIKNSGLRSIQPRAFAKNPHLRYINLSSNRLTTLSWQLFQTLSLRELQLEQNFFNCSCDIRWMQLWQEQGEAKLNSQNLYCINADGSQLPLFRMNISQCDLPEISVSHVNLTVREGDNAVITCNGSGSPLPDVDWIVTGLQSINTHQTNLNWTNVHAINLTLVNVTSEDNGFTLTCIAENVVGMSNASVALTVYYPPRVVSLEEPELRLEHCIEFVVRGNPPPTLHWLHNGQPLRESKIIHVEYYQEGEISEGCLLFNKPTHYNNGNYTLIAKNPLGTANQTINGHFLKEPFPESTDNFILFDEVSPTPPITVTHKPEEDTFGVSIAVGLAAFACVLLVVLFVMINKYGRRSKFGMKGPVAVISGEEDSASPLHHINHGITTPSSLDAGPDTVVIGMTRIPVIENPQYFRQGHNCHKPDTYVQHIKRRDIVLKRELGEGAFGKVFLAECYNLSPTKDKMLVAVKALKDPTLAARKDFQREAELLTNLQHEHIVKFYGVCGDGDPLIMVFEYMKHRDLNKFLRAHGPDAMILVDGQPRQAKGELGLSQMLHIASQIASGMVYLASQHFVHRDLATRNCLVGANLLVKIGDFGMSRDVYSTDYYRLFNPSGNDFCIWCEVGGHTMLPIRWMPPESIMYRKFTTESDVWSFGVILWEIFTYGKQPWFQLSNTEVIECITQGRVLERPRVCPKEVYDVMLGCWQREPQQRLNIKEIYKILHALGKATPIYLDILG
Method: The radiolabeled product was then captured on glass fiber filter plates (PerkinElmer, Unifilter®-96, GF/B®) and washed with 5% phosphoric acid to remove unbound radiolabel using a Tomtec MACH III Harvester 96®. After adding 35 μL/well of Bio-Safe II™ liquid scintillation cocktail (Research Products International), the plates were counted in a TopCount NXT (PerkinElmer) using a counting time of 30 s/well. The activity at each concentration of compound was expressed as percent of control (POC) and plotted versus compound concentration.

TrkC WT = TrkC WT (Homo sapiens, UniProt Q16288, S70N); details: wild-type TrkC enzyme; 22° C., 60 minutes
TrkC WT, sequence (Q16288 32-839 S70N): as the sequence (Q16288 32-839 S70N/G623R) above, with R592G counted along it
Method: as §1

TrkB WT = TrkB WT (Homo sapiens, UniProt Q16620); details: wild-type TrkB enzyme; 22° C., 60 minutes
TrkB WT, sequence (Q16620 32-822): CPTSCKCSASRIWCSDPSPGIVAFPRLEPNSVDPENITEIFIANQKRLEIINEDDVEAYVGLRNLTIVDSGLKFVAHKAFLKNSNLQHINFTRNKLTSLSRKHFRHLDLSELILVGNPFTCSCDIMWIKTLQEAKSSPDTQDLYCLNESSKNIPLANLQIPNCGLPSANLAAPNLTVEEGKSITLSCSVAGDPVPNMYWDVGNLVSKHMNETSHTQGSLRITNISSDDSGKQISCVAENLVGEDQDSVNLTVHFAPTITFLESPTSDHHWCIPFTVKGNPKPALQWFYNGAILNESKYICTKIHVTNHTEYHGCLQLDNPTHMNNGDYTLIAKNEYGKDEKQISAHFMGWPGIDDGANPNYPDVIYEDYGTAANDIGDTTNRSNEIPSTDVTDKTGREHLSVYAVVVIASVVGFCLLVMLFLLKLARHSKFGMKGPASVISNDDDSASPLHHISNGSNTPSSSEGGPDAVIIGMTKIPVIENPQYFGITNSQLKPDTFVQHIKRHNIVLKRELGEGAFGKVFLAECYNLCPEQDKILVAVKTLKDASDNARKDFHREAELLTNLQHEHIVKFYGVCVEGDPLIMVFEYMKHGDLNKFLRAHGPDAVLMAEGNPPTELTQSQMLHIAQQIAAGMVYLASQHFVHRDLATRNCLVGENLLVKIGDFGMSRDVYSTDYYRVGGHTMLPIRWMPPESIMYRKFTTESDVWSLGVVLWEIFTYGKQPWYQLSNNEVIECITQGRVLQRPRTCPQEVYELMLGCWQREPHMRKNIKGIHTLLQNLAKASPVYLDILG
Method: as §1

TrkC F617L = TrkC F617L (Homo sapiens, UniProt Q16288, F617L/S70N); details: mutant TrkC F617L enzyme; 22° C., 60 minutes
TrkC F617L, sequence (Q16288 32-839 S70N/F617L): as the sequence (Q16288 32-839 S70N/G623R) above, with F586L, R592G counted along it
Method: as §1

TrkA WT = TrkA WT (Homo sapiens, UniProt P04629); details: wild-type TrkA enzyme; 22° C., 60 minutes
TrkA WT, sequence (P04629 33-796): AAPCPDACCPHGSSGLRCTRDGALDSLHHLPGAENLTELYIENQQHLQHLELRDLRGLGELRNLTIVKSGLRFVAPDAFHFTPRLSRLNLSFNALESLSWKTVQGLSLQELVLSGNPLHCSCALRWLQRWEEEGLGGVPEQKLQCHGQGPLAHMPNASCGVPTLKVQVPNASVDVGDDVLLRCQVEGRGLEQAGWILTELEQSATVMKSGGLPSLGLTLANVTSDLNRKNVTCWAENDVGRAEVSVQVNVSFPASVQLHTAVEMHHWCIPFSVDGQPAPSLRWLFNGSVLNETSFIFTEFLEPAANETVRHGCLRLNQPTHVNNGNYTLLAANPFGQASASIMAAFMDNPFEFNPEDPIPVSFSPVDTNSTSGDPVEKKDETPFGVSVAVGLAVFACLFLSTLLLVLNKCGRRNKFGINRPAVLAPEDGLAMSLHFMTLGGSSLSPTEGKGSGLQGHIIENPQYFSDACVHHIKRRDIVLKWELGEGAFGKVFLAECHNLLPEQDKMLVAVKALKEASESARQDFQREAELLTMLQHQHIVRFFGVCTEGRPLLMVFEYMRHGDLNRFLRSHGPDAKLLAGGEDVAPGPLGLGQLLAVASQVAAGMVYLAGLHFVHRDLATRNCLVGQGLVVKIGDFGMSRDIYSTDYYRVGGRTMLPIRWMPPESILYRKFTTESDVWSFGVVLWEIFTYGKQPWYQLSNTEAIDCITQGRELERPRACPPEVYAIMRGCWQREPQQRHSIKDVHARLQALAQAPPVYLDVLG
Method: as §1

TrkA G667S = TrkA G667S (Homo sapiens, UniProt P04629, G667S); details: mutant TrkA G667S enzyme; 22° C., 60 minutes
TrkA G667S, sequence (P04629 33-796 G667S): as the sequence (P04629 33-796) above, with G635S counted along it
Method: (§2) The activity of the various Trk compounds exemplified in Table 6 was determined by monitoring the incorporation of [^33P]PO4 from [γ-^33P]ATP into poly-EAY (Sigma-Aldrich, P3899).
as §1

TrkA G595R = TrkA G595R (Homo sapiens, UniProt P04629, G595R); details: mutant TrkA G595R enzyme; 22° C., 60 minutes
TrkA G595R, sequence (P04629 33-796 G595R): as the sequence (P04629 33-796) above, with G563R counted along it
Method: as §2, §1

TrkA F589L = TrkA F589L (Homo sapiens, UniProt P04629, F589L); details: mutant TrkA F589L enzyme; 22° C., 60 minutes
TrkA F589L, sequence (P04629 33-796 F589L): as the sequence (P04629 33-796) above, with F557L counted along it
Method: as §2, §1

TrkA V573M = TrkA V573M (Homo sapiens, UniProt P04629, V573M); details: mutant TrkA V573M enzyme; 22° C., 60 minutes
TrkA V573M, sequence (P04629 33-796 V573M): as the sequence (P04629 33-796) above, with V541M counted along it
Method: as §2, §1

TrkA G667C = TrkA G667C (Homo sapiens, UniProt P04629, G667C); details: mutant TrkA G667C enzyme; 22° C., 60 minutes
TrkA G667C, sequence (P04629 33-796 G667C): as the sequence (P04629 33-796) above, with G635C counted along it
Method: as §2, §1

TrkB G623R, sequence (Q16620 32-822 G623R): as the sequence (Q16620 32-822) above, with G592R counted along it

| SMILES | IC50 (TrkB G623R) [nM] | IC50 (TrkC G623R) [nM] | IC50 (TrkC WT) [nM] | IC50 (TrkB WT) [nM] | IC50 (TrkC F617L) [nM] | IC50 (TrkA WT) [nM] | IC50 (TrkA G667S) [nM] | IC50 (TrkA G595R) [nM] | IC50 (TrkA F589L) [nM] | IC50 (TrkA V573M) [nM] | IC50 (TrkA G667C) [nM] |
| --- | --- | --- | --- | --- | --- | --- | --- | --- | --- | --- | --- |
| O=C(Nc1cnc2ccc(N3CCC[C@@H]3c3cc(F)ccc3F)nn12)N1CC(O)C1 [Compound 1, (R)-N-(6-(2-(2,5-difluorophenyl)pyrrolidin-1-yl)imidazo[1,2-b]pyridazin-3-yl)-3-hydroxyazetidine-1-carboxamide] | 59.7 | 29.3 | < 2.5 | 5.7 | 58 | – | – | – | – | – | – |
| CN(C)C(=O)Nc1cnc2ccc(N3CCC[C@@H]3c3cc(F)ccc3F)nn12 [Compound 2, (R)-3-(6-(2-(2,5-difluorophenyl)pyrrolidin-1-yl)imidazo[1,2-b]pyridazin-3-yl)-1,1-dimethylurea] | 34.1 | 23.1 | < 2.5 | 4.5 | 37.6 | – | – | – | – | – | – |
| NC(=O)Nc1cnc2ccc(N3CCC[C@@H]3c3cc(F)ccc3F)nn12 [Compound 3, (R)-1-(6-(2-(2,5-difluorophenyl)pyrrolidin-1-yl)imidazo[1,2-b]pyridazin-3-yl)urea] | 90 | 55.7 | 4.5 | 11.9 | 273 | – | – | – | – | – | – |
| CNC(=O)Nc1cnc2ccc(N3CCC[C@@H]3c3cc(F)ccc3F)nn12 [Compound 4, (R)-1-(6-(2-(2,5-difluorophenyl)pyrrolidin-1-yl)imidazo[1,2-b]pyridazin-3-yl)-3-methylurea] | 132 | 70.8 | 3.1 | 10.6 | 177 | – | – | – | – | – | – |
| O=C(Nc1cnn2ccc(N3CCC[C@@H]3c3cc(F)ccc3F)nc12)N1CC(O)C1 [Compound 5, (R)-N-(5-(2-(2,5-difluorophenyl)pyrrolidin-1-yl)pyrazolo[1,5-a]pyrimidin-3-yl)-3-hydroxyazetidine-1-carboxamide] | 132 | 95 | < 2.5 | 5.9 | 154 | 1.1 | 38.5 | 84.6 | 232 | 152 | 141 |
| CN(CCO)C(=O)Nc1cnc2ccc(N3CCC[C@@H]3c3cc(F)ccc3F)nn12 [Compound 6, (R)-3-(6-(2-(2,5-difluorophenyl)pyrrolidin-1-yl)imidazo[1,2-b]pyridazin-3-yl)-1-(2-hydroxyethyl)-1-methylurea] | 27.5 | 24.1 | < 2.5 | 5 | 49.7 | – | – | – | – | – | – |
| CC1(O)CN(C(=O)Nc2cnc3ccc(N4CCC[C@@H]4c4cc(F)ccc4F)nn23)C1 [Compound 7, (R)-N-(6-(2-(2,5-difluorophenyl)pyrrolidin-1-yl)imidazo[1,2-b]pyridazin-3-yl)-3-hydroxy-3-methylazetidine-1-carboxamide] | 47.9 | 22.7 | < 2.5 | 7 | 42.5 | – | – | – | – | – | – |
| CN(C)C(=O)Nc1cnn2ccc(N3CCC[C@@H]3c3cc(F)ccc3F)nc12 [Compound 8, (R)-3-(5-(2-(2,5-difluorophenyl)pyrrolidin-1-yl)pyrazolo[1,5-a]pyrimidin-3-yl)-1,1-dimethylurea] | 64.6 | 54.9 | < 2.5 | 5 | 67.1 | 0.9 | 19.7 | 49.6 | 154 | 129 | 84.2 |
| O=C(Nc1cnn2ccc(N3CCC[C@@H]3c3cc(F)ccc3Cl)nc12)N1CC(O)C1 [Compound 9, (R)-N-(5-(2-(2-chloro-5-fluorophenyl)pyrrolidin-1-yl)pyrazolo[1,5-a]pyrimidin-3-yl)-3-hydroxyazetidine-1-carboxamide] | 104 | 92.6 | < 2.5 | 4.6 | 66.5 | 0.8 | 21.6 | 91.9 | 90.7 | 106 | 76.5 |
| CC1(O)CN(C(=O)Nc2cnn3ccc(N4CCC[C@@H]4c4cc(F)ccc4Cl)nc23)C1 [Compound 10, (R)-N-(5-(2-(2-chloro-5-fluorophenyl)pyrrolidin-1-yl)pyrazolo[1,5-a]pyrimidin-3-yl)-3-hydroxy-3-methylazetidine-1-carboxamide] | 150 | 101 | < 2.5 | 6.5 | 80.1 | 0.9 | 27 | 107 | 103 | 105 | 89.2 |
| O=C(Nc1cnn2ccc(N3CCC[C@@H]3c3cccc(F)c3)nc12)N1CC(O)C1 [Compound 11, (R)-N-(5-(2-(3-fluorophenyl)pyrrolidin-1-yl)pyrazolo[1,5-a]pyrimidin-3-yl)-3-hydroxyazetidine-1-carboxamide] | 671 | 446 | 4.4 | 19 | 476 | 6.9 | 275 | 561 | 1080 | 1200 | 830 |
| NC(=O)c1cnn2ccc(N3CCC[C@@H]3c3cc(F)ccc3F)nc12 [Compound 12, (R)-5-(2-(2,5-difluorophenyl)pyrrolidin-1-yl)pyrazolo[1,5-a]pyrimidine-3-carboxamide] | 1.3 | 1.6 | < 2.5 | 3.3 | 9.9 | < 0.5 | 3.6 | 1 | 21 | 14.9 | 15.6 |
| O=C(NC1CC1)c1cnn2ccc(N3CCC[C@@H]3c3cncc(F)c3)nc12 [Compound 13, (R)-N-cyclopropyl-5-(2-(5-fluoro-pyridin-3-yl)pyrrolidin-1-yl)pyrazolo [1,5-a]pyrimidine-3-carboxamide] | 2.7 | 3.1 | < 2.5 | 3.5 | 8.7 | < 0.5 | 4.1 | 3.3 | 37.2 | 20.9 | 32.4 |
| CONC(=O)c1cnn2ccc(N3CCC[C@@H]3c3cc(F)cnc3OC)nc12 [Compound 14, (R)-5-(2-(5-fluoro-2-methoxypyridin-3-yl)pyrrolidin-1-yl)-N-methoxy-pyrazolo[1,5-a]pyrimidine-3-carboxamide] | 1.5 | 2.7 | < 2.5 | 4.4 | 12.4 | < 0.5 | 2.8 | 1.5 | 14.8 | 12.1 | 9 |
| CC1(NC(=O)c2cnn3ccc(N4CCC[C@@H]4c4cncc(F)c4)nc23)CC1 [Compound 15, (R)-5-(2-(5-fluoropyridin-3-yl)pyrrolidin-1-yl)-N-(1-methylcyclopropyl)pyrazolo [1,5-a]pyrimidine-3-carboxamide] | 1.6 | 1.7 | < 2.5 | < 2.5 | < 5 | < 0.5 | 1.4 | 1.6 | 7.3 | 6.3 | 8.1 |
| O=C1NCCCOc2ncc(F)cc2[C@H]2CCCN2c2ccn3ncc1c3n2 [Compound 16, (6R)-9-fluoro-13-oxa-2,11,17,21,22,25-hexaazapentacyclo[17.5.2.0^2,6.0^7,12.0^22,26]-hexacosa-1(25),7,9,11,19(26),20,23-heptaen-18-one] | 0.9 | 1.3 | < 2.5 | 2.9 | < 5 | < 0.5 | 0.4 | 0.9 | < 1 | < 5 | 1.1 |
| O=C1NC[C@@H](O)COc2ncc(F)cc2[C@H]2CCCN2c2ccn3ncc1c3n2 [Compound 17, (6R,15R)-9-fluoro-15-hydroxy-13-oxa-2,11,17,21,22,25-hexaazapentacyclo-[17.5.2.0^2,6.0^7,12.0^22,26]-hexacosa-1(25), 7,9,11,19(26),20,23-heptaen-18-one] | 1.1 | 1.8 | < 2.5 | 3.6 | < 5 | < 0.5 | 0.7 | 1.5 | 2.1 | < 5 | 2.6 |
| O=C1NCCCOc2ccc(F)cc2[C@H]2CCCN2c2ccn3ncc1c3n2 [Compound 19, (6R)-9-fluoro-13-oxa-2,17,21,22,25-pentaazapentacyclo[17.5.2.0^2,6.0^7,12.0^22,26] hexacosa-1(25),7,9,11,19(26),20,23-heptaen-18-one] | 1 | 1.8 | < 2.5 | 4.4 | 5.1 | 0.5 | 0.3 | 1.2 | 1.1 | < 5 | 0.9 |
